Reference: PubChem BioAssay (NCI)
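GI50 marks 50% less growth. Definition used: TGI = concentration required for complete inhibition of growth.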

Columns and labels:
Assay in all cases: NCI-60 cell line screen, 384-well format
SF-295 CNS = test system: SF-295 CNS
A498 renal = test system: A498 renal
HT29 colon = test system: HT29 colon
BT-549 breast = test system: BT-549 breast
U251 glioblastoma = test system: U251 glioblastoma
SK-MEL-5 melanoma = test system: SK-MEL-5 melanoma
SN12C renal = test system: SN12C renal
LOX IMVI melanoma = test system: LOX IMVI melanoma
SK-OV-3 ovarian = test system: SK-OV-3 ovarian
CCRF-CEM leukemia = test system: CCRF-CEM leukemia
UACC-62 melanoma = test system: UACC-62 melanoma
OVCAR-4 ovarian = test system: OVCAR-4 ovarian
786-0 renal = test system: 786-0 renal
SW-620 colon = test system: SW-620 colon
M14 melanoma = test system: M14 melanoma
CAKI-1 renal = test system: CAKI-1 renal
SF-268 CNS = test system: SF-268 CNS
KM12 colon = test system: KM12 colon
TK-10 renal = test system: TK-10 renal
HCC-2998 colon = test system: HCC-2998 colon
SK-MEL-28 melanoma = test system: SK-MEL-28 melanoma
MOLT-4 leukemia = test system: MOLT-4 leukemia
MCF7 breast = test system: MCF7 breast
NCI-H226 lung = test system: NCI-H226 lung
A549 NSCLC = test system: A549 NSCLC
MDA-MB-435 melanoma = test system: MDA-MB-435 melanoma
NCI/ADR-RES ovarian = test system: NCI/ADR-RES ovarian
HCT-15 colon = test system: HCT-15 colon
HS 578T breast = test system: HS 578T breast
HL-60(TB) leukemia = test system: HL-60(TB) leukemia
T-47D breast = test system: T-47D breast
COLO 205 colon = test system: COLO 205 colon
MALME-3M melanoma = test system: MALME-3M melanoma
UACC-257 melanoma = test system: UACC-257 melanoma
NCI-H522 lung = test system: NCI-H522 lung
SNB-75 CNS = test system: SNB-75 CNS
MDA-MB-468 breast = test system: MDA-MB-468 breast
SNB-19 CNS = test system: SNB-19 CNS
EKVX NSCLC = test system: EKVX NSCLC
SR leukemia = test system: SR leukemia
OVCAR-3 ovarian = test system: OVCAR-3 ovarian
UO-31 renal = test system: UO-31 renal
OVCAR-8 ovarian = test system: OVCAR-8 ovarian
MDA-MB-231 breast = test system: MDA-MB-231 breast
IGROV1 ovarian = test system: IGROV1 ovarian
HOP-62 NSCLC = test system: HOP-62 NSCLC
HCT-116 colon = test system: HCT-116 colon
RPMI-8226 leukemia = test system: RPMI-8226 leukemia
NCI-H23 lung = test system: NCI-H23 lung
HOP-92 NSCLC = test system: HOP-92 NSCLC
SF-539 CNS = test system: SF-539 CNS
ACHN renal = test system: ACHN renal
RXF 393 renal = test system: RXF 393 renal
NCI-H322M lung = test system: NCI-H322M lung
PC-3 prostate = test system: PC-3 prostate
DU-145 prostate = test system: DU-145 prostate
K-562 leukemia = test system: K-562 leukemia
NCI-H460 NSCLC = test system: NCI-H460 NSCLC

## CNCc1ccc(-c2cc(-c3nc(-c4ccc(S(=O)(=O)C(C)C)cc4)cnc3N)on2)cc1
SF-295 CNS
  GI50: 1060 nM
  TGI: 4100 nM
A498 renal
  GI50: 42.2 nM
  TGI: 183 nM
HT29 colon
  GI50: 324 nM
  TGI: 1060 nM
BT-549 breast
  GI50: 173 nM
  TGI: 489 nM
U251 glioblastoma
  GI50: 460 nM
  TGI: 1660 nM
SK-MEL-5 melanoma
  GI50: 1320 nM
  TGI: 2600 nM
SN12C renal
  GI50: 1290 nM
  TGI: 5490 nM
LOX IMVI melanoma
  GI50: 303 nM
  TGI: 1400 nM
SK-OV-3 ovarian
  GI50: 242 nM
  TGI: 1360 nM
CCRF-CEM leukemia
  GI50: 40.9 nM
  TGI: 161 nM
UACC-62 melanoma
  GI50: 1060 nM
  TGI: 2240 nM
OVCAR-4 ovarian
  GI50: 313 nM
  TGI: 1310 nM
786-0 renal
  GI50: 150 nM
  TGI: 486 nM
SW-620 colon
  GI50: 267 nM
  TGI: 1260 nM
M14 melanoma
  GI50: 318 nM
  TGI: 1140 nM
CAKI-1 renal
  GI50: 735 nM
  TGI: 2050 nM
SF-268 CNS
  GI50: 781 nM
  TGI: 2060 nM
KM12 colon
  GI50: 131 nM
  TGI: 559 nM
TK-10 renal
  GI50: 57.3 nM
  TGI: 347 nM
HCC-2998 colon
  GI50: 29.5 nM
  TGI: 192 nM
SK-MEL-28 melanoma
  GI50: 1420 nM
  TGI: 2730 nM
MOLT-4 leukemia
  GI50: 66.3 nM
  TGI: 204 nM
MCF7 breast
  GI50: 105 nM
  TGI: 1250 nM
NCI-H226 lung
  GI50: 3070 nM
  TGI: 9520 nM
A549 NSCLC
  GI50: 427 nM
  TGI: 1810 nM
MDA-MB-435 melanoma
  GI50: 484 nM
  TGI: 1600 nM
NCI/ADR-RES ovarian
  GI50: 1310 nM
  TGI: 2680 nM
HCT-15 colon
  GI50: 127 nM
  TGI: 315 nM
HS 578T breast
  GI50: 138 nM
  TGI: 454 nM
HL-60(TB) leukemia
  GI50: 114 nM
  TGI: 248 nM
T-47D breast
  GI50: 10400 nM
  TGI: 22200 nM
COLO 205 colon
  GI50: 1040 nM
  TGI: 6580 nM
MALME-3M melanoma
  GI50: 307 nM
  TGI: 1330 nM
UACC-257 melanoma
  GI50: 248 nM
  TGI: 870 nM
NCI-H522 lung
  GI50: 6610 nM
  TGI: 20200 nM
SNB-75 CNS
  GI50: 1150 nM
  TGI: 2380 nM
MDA-MB-468 breast
  GI50: 570 nM
  TGI: 1850 nM
SNB-19 CNS
  GI50: 1130 nM
  TGI: 2480 nM
EKVX NSCLC
  GI50: 1000 nM
  TGI: 2230 nM
SR leukemia
  TGI: 18.5 nM
OVCAR-3 ovarian
  GI50: 145 nM
  TGI: 1500 nM
UO-31 renal
  GI50: 285 nM
  TGI: 1400 nM
OVCAR-8 ovarian
  GI50: 534 nM
  TGI: 1770 nM
MDA-MB-231 breast
  GI50: 1210 nM
  TGI: 2730 nM
IGROV1 ovarian
  GI50: 211 nM
  TGI: 1340 nM
HOP-62 NSCLC
  GI50: 291 nM
  TGI: 1460 nM
HCT-116 colon
  GI50: 242 nM
  TGI: 1330 nM
RPMI-8226 leukemia
  GI50: 132 nM
  TGI: 355 nM
NCI-H23 lung
  GI50: 162 nM
  TGI: 916 nM
HOP-92 NSCLC
  GI50: 336 nM
  TGI: 1410 nM
SF-539 CNS
  GI50: 135 nM
  TGI: 310 nM
ACHN renal
  GI50: 151 nM
  TGI: 1240 nM
RXF 393 renal
  GI50: 216 nM
  TGI: 791 nM
NCI-H322M lung
  GI50: 139 nM
  TGI: 1180 nM
PC-3 prostate
  GI50: 506 nM
  TGI: 2040 nM
DU-145 prostate
  GI50: 250 nM
  TGI: 1320 nM
K-562 leukemia
  GI50: 250 nM
  TGI: 1170 nM
NCI-H460 NSCLC
  GI50: 57.5 nM
  TGI: 334 nM

## CCCCS(=O)c1sc2nc(-c3cccs3)cc(-c3ccccc3)c2c1N (configuration not stated)
SF-295 CNS
  GI50: 19600 nM
  TGI: 96500 nM
A498 renal
  GI50: 21200 nM
  TGI: 79200 nM
HT29 colon
  GI50: 26000 nM
  TGI: > 100000 nM
BT-549 breast
  GI50: 16500 nM
  TGI: 45600 nM
U251 glioblastoma
  GI50: 23200 nM
  TGI: > 100000 nM
SK-MEL-5 melanoma
  GI50: 13800 nM
  TGI: 26800 nM
SN12C renal
  GI50: 65000 nM
  TGI: > 100000 nM
LOX IMVI melanoma
  GI50: 16700 nM
  TGI: 38100 nM
SK-OV-3 ovarian
  GI50: 31900 nM
  TGI: > 100000 nM
CCRF-CEM leukemia
  GI50: 11400 nM
  TGI: 28300 nM
UACC-62 melanoma
  GI50: > 100000 nM
  TGI: > 100000 nM
OVCAR-4 ovarian
  GI50: 30400 nM
  TGI: > 100000 nM
786-0 renal
  GI50: 27900 nM
  TGI: > 100000 nM
SW-620 colon
  GI50: > 100000 nM
  TGI: > 100000 nM
M14 melanoma
  GI50: > 100000 nM
  TGI: > 100000 nM
CAKI-1 renal
  GI50: 31900 nM
  TGI: > 100000 nM
SF-268 CNS
  GI50: > 100000 nM
  TGI: > 100000 nM
KM12 colon
  GI50: > 100000 nM
  TGI: > 100000 nM
TK-10 renal
  GI50: 29500 nM
  TGI: > 100000 nM
HCC-2998 colon
  GI50: 27200 nM
  TGI: 63300 nM
SK-MEL-28 melanoma
  GI50: > 100000 nM
  TGI: > 100000 nM
MOLT-4 leukemia
  GI50: 6070 nM
  TGI: 18100 nM
MCF7 breast
  GI50: 13500 nM
  TGI: 90700 nM
NCI-H226 lung
  GI50: 25700 nM
  TGI: 74600 nM
A549 NSCLC
  GI50: 12500 nM
  TGI: > 100000 nM
MDA-MB-435 melanoma
  GI50: 36100 nM
  TGI: > 100000 nM
NCI/ADR-RES ovarian
  GI50: 14000 nM
  TGI: 59000 nM
HCT-15 colon
  GI50: 19100 nM
  TGI: > 100000 nM
HS 578T breast
  GI50: 14100 nM
  TGI: 76200 nM
T-47D breast
  GI50: 19200 nM
  TGI: > 100000 nM
COLO 205 colon
  GI50: 34400 nM
  TGI: > 100000 nM
MALME-3M melanoma
  GI50: 28800 nM
  TGI: 73200 nM
UACC-257 melanoma
  GI50: 26900 nM
  TGI: 84100 nM
NCI-H522 lung
  GI50: 17000 nM
  TGI: 90500 nM
SNB-75 CNS
  GI50: 27200 nM
  TGI: > 100000 nM
MDA-MB-468 breast
  GI50: 15000 nM
  TGI: 42700 nM
SNB-19 CNS
  GI50: 32500 nM
  TGI: > 100000 nM
EKVX NSCLC
  GI50: 27800 nM
  TGI: > 100000 nM
SR leukemia
  GI50: 3730 nM
  TGI: 8780 nM
OVCAR-3 ovarian
  GI50: 16700 nM
  TGI: 43500 nM
UO-31 renal
  GI50: 29200 nM
  TGI: > 100000 nM
OVCAR-8 ovarian
  GI50: 25200 nM
  TGI: > 100000 nM
MDA-MB-231 breast
  GI50: 25700 nM
  TGI: > 100000 nM
IGROV1 ovarian
  GI50: 38600 nM
  TGI: > 100000 nM
HOP-62 NSCLC
  GI50: 29900 nM
  TGI: 93800 nM
HCT-116 colon
  GI50: 26000 nM
  TGI: 91000 nM
RPMI-8226 leukemia
  GI50: 4380 nM
  TGI: 14600 nM
NCI-H23 lung
  GI50: 21400 nM
  TGI: 97900 nM
HOP-92 NSCLC
  GI50: 26400 nM
  TGI: 99200 nM
SF-539 CNS
  GI50: 23900 nM
  TGI: 52200 nM
ACHN renal
  GI50: 31700 nM
  TGI: > 100000 nM
RXF 393 renal
  GI50: 20400 nM
  TGI: 95500 nM
NCI-H322M lung
  GI50: 32200 nM
  TGI: > 100000 nM
DU-145 prostate
  GI50: 28700 nM
  TGI: > 100000 nM
K-562 leukemia
  GI50: 8470 nM
  TGI: > 100000 nM
NCI-H460 NSCLC
  GI50: 13700 nM
  TGI: 32400 nM
